# Test results: article PMC9511441, “Semisynthetic teicoplanin derivatives with dual antimicrobial activity against SARS-CoV-2 and multiresistant bacteria” (Scientific Reports, 2022)
# Like-named read-outs stand apart in the source and are kept apart here.
# Tests used:
# SARS-CoV-2 pseudovirus [1] = assay: microbe, parasite or virus in culture; assay type: cell-based; conditions: A549-AT cells, TMPRSS2-mediated uptake
# S. haemolyticus = assay: MIC, broth microdilution; assay type: cell-based; conditions: Staphylococcus haemolyticus
# S.pyogenes = assay: MIC, broth microdilution; assay type: cell-based; conditions: Streptococcus pyogenes
# S. aureus = assay: MIC, broth microdilution; assay type: cell-based; conditions: Staphylococcus aureus
# E. faecalis = assay: MIC, broth microdilution; assay type: cell-based; conditions: Enterococcus faecalis
# E. faecium = assay: microbe, parasite or virus in culture; assay type: cell-based; conditions: Enterococcus faecium
# S. epidermidis = assay: microbe, parasite or virus in culture; assay type: cell-based; conditions: Staphylococcus epidermidis
# HEL cells = assay: Cytotoxicity in mock-infected HEL cells (MTS); assay type: cell-based, human; conditions: mock-infected HEL cells, MTS, mean of 2–3 tests
# Calu-3 cells = assay: Cytotoxicity in mock-infected Calu-3 cells (XTT); conditions: read-out: CC50, Calu-3 cells, three days
# VeroE6 cells = assay: Cytotoxicity in mock-infected VeroE6 cells (XTT); assay type: cell-based, African green monkey; conditions: mock-infected Vero E6 cells, three days, XTT
# [2] = target: T1, human recombinant cathepsin L (Homo sapiens, UniProt P07711); assay: biochemical; assay type: biochemical; conditions: read-out: Cathepsin L IC50; pH 5.5, Z-Phe-Arg-AMC substrate
# T1 construct: made in house; host or cells: Escherichia coli
# T1 sequence (P07711 114-333): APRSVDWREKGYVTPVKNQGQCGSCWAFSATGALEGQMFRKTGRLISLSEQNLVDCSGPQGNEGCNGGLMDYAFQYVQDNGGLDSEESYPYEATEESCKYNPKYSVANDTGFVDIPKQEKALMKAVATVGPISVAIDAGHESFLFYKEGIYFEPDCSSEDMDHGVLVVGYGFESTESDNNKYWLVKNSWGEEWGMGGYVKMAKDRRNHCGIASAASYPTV
# SARS-CoV-2 pseudovirus [3] = assay: microbe, parasite or virus in culture; assay type: cell-based; conditions: cathepsin-dependent endosomal pathway
# S. aureus ATCC29213 = assay: Fluorescent competition assay, release of fluorescent vancomycin; conditions: cells saturated with FL-VAN, Fig. 7 left panel
# [4] = tested on: Pseudomonas aeruginosa ATCC 27853; assay: MIC against Gram-negative strain; conditions: ATCC27853
# [5] = tested on: Acinetobacter baumannii ATCC BAA1605; assay: MIC against Gram-negative strain; conditions: Acinetobacter baumannii, ATCCBAA1605
# [6] = tested on: Klebsiella pneumoniae ST258 clone K 160/09; assay: MIC against Gram-negative strain; conditions: Klebsiella pneumoniae
# [7] = tested on: Escherichia coli ATCC 25218; assay: MIC against Gram-negative strain; conditions: ATCC25218
# [8] = S. haemolyticus mecA, 6 strains, read-out: Average MIC value
# [9] = S.haemolyticus DALB_R1, mecA, read-out: MIC value
# [10] = S.haemolyticus DALB_R2, mecA, read-out: MIC value
# [11] = S.haemolyticus DALB_R3, mecA, read-out: MIC value
# [12] = S.haemolyticus DALB_R4, mecA, read-out: MIC value
# [13] = S.haemolyticus DALB_R5, mecA, read-out: MIC value
# [14] = S.haemolyticus ORI_R1, mecA, read-out: MIC value
# [15] = read-out: MIC value, S.pyogenes H232
# [16] = read-out: MIC value, S.pyogenes H550
# [17] = read-out: MIC value, S.pyogenes H578
# [18] = ATCC 29213 / MSSA, read-out: MIC value, S. aureus ATCC29213, MSSA
# [19] = MRSA / USA300, read-out: MIC value, S. aureus USA300, CA-MRSA
# [20] = MRSA, read-out: Average MIC value, S. aureus CA-MRSA, 1 strain
# [21] = MRSA, read-out: Average MIC value, S. aureus MRSA, 7 strains
# [22] = MRSA, read-out: MIC value, S. aureus 73OL, MRSA
# [23] = MRSA, read-out: MIC value, S. aureus 214OL, MRSA
# [24] = MRSA, read-out: MIC value, S. aureus 1041OL, MRSA
# [25] = MRSA, read-out: MIC value, S. aureus A6918, MRSA
# [26] = MRSA, read-out: MIC value, S. aureus A6919, MRSA
# [27] = MRSA, read-out: MIC value, S. aureus Mu50, MRSA
# [28] = MRSA, read-out: MIC value, S. aureus N315, MRSA
# [29] = MSSA / NEWMAN, read-out: MIC value, S. aureus Newman, MSSA
# [30] = MSSA, read-out: Average MIC value, S. aureus MSSA, 4 strains
# [31] = MSSA, read-out: MIC value, S. aureus MSSA476, MSSA
# [32] = MSSA, read-out: MIC value, S. aureus SA564, MSSA
# [33] = read-out: Average MIC value, E. faecalis VAN^R,TEI^R/VanA, 1 strain
# [34] = read-out: Average MIC value, E. faecalis VAN^S, TEI^S, 2 strains
# [35] = read-out: MIC value, E.faecalis JH2-2
# [36] = read-out: MIC value, E.faecalis OG1RF
# [37] = read-out: MIC value, E.faecalis V583, VAN,TEI/VanA
# [38] = read-out: Average MIC value, E. faecium VAN^R,TEI^R/VanA, 8 strains
# [39] = read-out: Average MIC value, E. faecium VAN^S, TEI^S, 1 strain
# [40] = read-out: MIC value, E.faecium E335, VAN,TEI,LNZ/VanA
# [41] = read-out: MIC value, E.faecium E355, VAN,TEI,LNZ/VanA
# [42] = read-out: MIC value, E.faecium E832, VAN,TEI,LNZ/VanA
# [43] = read-out: MIC value, E.faecium E854, VAN,TEI,LNZ/VanA
# [44] = read-out: MIC value, E.faecium E859, VAN,TEI,LNZ/VanA
# [45] = read-out: MIC value, E.faecium E1114, VAN,TEI,LNZ/VanA
# [46] = read-out: MIC value, E.faecium E1131, VAN,TEI,LNZ/VanA
# [47] = read-out: MIC value, E.faecium E1132, VAN,TEI,LNZ/VanA
# [48] = read-out: MIC value, E.faecium TX0016
# [49] = read-out: Average MIC value, S. epidermidis mecA, 6 strains
# [50] = read-out: MIC value, S.epidermidis ORI_R1, mecA
# [51] = read-out: MIC value, S.epidermidis ORI_R2, mecA
# [52] = read-out: MIC value, S.epidermidis ORI_R3, mecA
# [53] = read-out: MIC value, S.epidermidis ORI_R4, mecA
# [54] = read-out: MIC value, S.epidermidis TEI_R1, mecA
# [55] = read-out: MIC value, S.epidermidis TEI_R2, mecA
smiles,measurement,setting,value
CC(=O)N[C@H]1[C@H](O[C@@H]2c3ccc(c(Cl)c3)Oc3cc4cc(c3O)Oc3ccc(cc3Cl)C[C@H]3NC(=O)[C@H](n5cc(COCCCC(F)(F)C(F)(F)C(F)(F)C(F)(F)C(F)(F)C(F)(F)F)nn5)c5ccc(O)c(c5)Oc5cc(O)cc(c5)[C@H](NC3=O)C(=O)N[C@H]4C(=O)N[C@H]3C(=O)N[C@@H]2C(=O)N[C@H](C(=O)O)c2cc(O)cc(O)c2-c2cc3ccc2O)O[C@H](CO)[C@@H](O)[C@@H]1O [Compound 4],Inhibition of pseudovirus entry in A549-AT cells (in words),SARS-CoV-2 pseudovirus [1],"active, though less potent"
same,MIC,S. haemolyticus; [8],6.8 µg/mL
same,MIC,S. haemolyticus; [9],8 µg/mL
same,MIC,S. haemolyticus; [10],8 µg/mL
same,MIC,S. haemolyticus; [11],8 µg/mL
same,MIC,S. haemolyticus; [12],8 µg/mL
same,MIC,S. haemolyticus; [13],1 µg/mL
same,MIC,S. haemolyticus; [14],8 µg/mL
same,MIC,S.pyogenes; [15],0.0625 µg/mL
same,MIC,S.pyogenes; [16],0.0625 µg/mL
same,MIC,S.pyogenes; [17],0.0625 µg/mL
same,MIC,S. aureus; [18],1 µg/mL
same,MIC,S. aureus; [19],2 µg/mL
same,MIC,S. aureus; [20],2 µg/mL
same,MIC,S. aureus; [21],1.71 µg/mL
same,MIC,S. aureus; [22],2 µg/mL
same,MIC,S. aureus; [23],2 µg/mL
same,MIC,S. aureus; [24],2 µg/mL
same,MIC,S. aureus; [25],1 µg/mL
same,MIC,S. aureus; [26],1 µg/mL
same,MIC,S. aureus; [27],2 µg/mL
same,MIC,S. aureus; [28],2 µg/mL
same,MIC,S. aureus; [29],2 µg/mL
same,MIC,S. aureus; [30],1.75 µg/mL
same,MIC,S. aureus; [31],2 µg/mL
same,MIC,S. aureus; [32],2 µg/mL
same,MIC,E. faecalis; [33],> 8 µg/mL
same,MIC,E. faecalis; [34],0.25 µg/mL
same,MIC,E. faecalis; [35],0.25 µg/mL
same,MIC,E. faecalis; [36],0.25 µg/mL
same,MIC,E. faecalis; [37],> 8 µg/mL
same,MIC,E. faecium; [38],> 8 µg/mL
same,MIC,E. faecium; [39],0.25 µg/mL
same,MIC,E. faecium; [40],> 8 µg/mL
same,MIC,E. faecium; [41],> 8 µg/mL
same,MIC,E. faecium; [42],> 8 µg/mL
same,MIC,E. faecium; [43],> 8 µg/mL
same,MIC,E. faecium; [44],> 8 µg/mL
same,MIC,E. faecium; [45],> 8 µg/mL
same,MIC,E. faecium; [46],> 8 µg/mL
same,MIC,E. faecium; [47],> 8 µg/mL
same,MIC,E. faecium; [48],0.25 µg/mL
same,MIC,S. epidermidis; [49],0.812 µg/mL
same,MIC,S. epidermidis; [50],2 µg/mL
same,MIC,S. epidermidis; [51],1 µg/mL
same,MIC,S. epidermidis; [52],1 µg/mL
same,MIC,S. epidermidis; [53],0.25 µg/mL
same,MIC,S. epidermidis; [54],0.5 µg/mL
same,MIC,S. epidermidis; [55],0.125 µg/mL
same,CC50,HEL cells,> 100 µM
same,CC50,Calu-3 cells,93 ± 11 µM
same,CC50,VeroE6 cells,> 100 µM
same,IC50,[2],66 ± 1 µM
same,Inhibition of pseudovirus entry in Vero cells (in words),SARS-CoV-2 pseudovirus [3],highly effective
CC(=O)N[C@H]1[C@H](O[C@@H]2c3ccc(c(Cl)c3)Oc3cc4cc(c3O)Oc3ccc(cc3Cl)C[C@H]3NC(=O)[C@H](NC(=O)c5cc(OCCCSCCNC(=N)N)c(OCCCSCCNC(=N)N)c(OCCCSCCNC(=N)N)c5)c5ccc(O)c(c5)Oc5cc(O)cc(c5)[C@H](NC3=O)C(=O)N[C@H]4C(=O)N[C@H]3C(=O)N[C@@H]2C(=O)N[C@H](C(=O)O)c2cc(O)cc(O)c2-c2cc3ccc2O)O[C@H](CO)[C@@H](O)[C@@H]1O [Compound 7],MIC,S. haemolyticus; [8],1.2 µg/mL
same,MIC,S. haemolyticus; [9],1 µg/mL
same,MIC,S. haemolyticus; [10],1 µg/mL
same,MIC,S. haemolyticus; [11],2 µg/mL
same,MIC,S. haemolyticus; [12],2 µg/mL
same,MIC,S. haemolyticus; [13],0.5 µg/mL
same,MIC,S. haemolyticus; [14],0.5 µg/mL
same,MIC,S.pyogenes; [15],0.25 µg/mL
same,MIC,S.pyogenes; [16],0.25 µg/mL
same,MIC,S.pyogenes; [17],0.25 µg/mL
same,MIC,S. aureus; [18],0.5 µg/mL
same,MIC,S. aureus; [19],1 µg/mL
same,MIC,S. aureus; [20],1 µg/mL
same,MIC,S. aureus; [21],0.89 µg/mL
same,MIC,S. aureus; [22],1 µg/mL
same,MIC,S. aureus; [23],1 µg/mL
same,MIC,S. aureus; [24],1 µg/mL
same,MIC,S. aureus; [25],1 µg/mL
same,MIC,S. aureus; [26],1 µg/mL
same,MIC,S. aureus; [27],1 µg/mL
same,MIC,S. aureus; [28],0.25 µg/mL
same,MIC,S. aureus; [29],1 µg/mL
same,MIC,S. aureus; [30],1.12 µg/mL
same,MIC,S. aureus; [31],2 µg/mL
same,MIC,S. aureus; [32],1 µg/mL
same,MIC,E. faecalis; [33],> 8 µg/mL
same,MIC,E. faecalis; [34],2 µg/mL
same,MIC,E. faecalis; [35],2 µg/mL
same,MIC,E. faecalis; [36],2 µg/mL
same,MIC,E. faecalis; [37],> 8 µg/mL
same,Outcompeting fluorescent vancomycin from S. aureus (in words),S. aureus ATCC29213,no effect
same,MIC,[4],128 µg/mL
same,MIC,E. faecium; [38],> 8 µg/mL
same,MIC,E. faecium; [39],2 µg/mL
same,MIC,E. faecium; [40],> 8 µg/mL
same,MIC,E. faecium; [41],> 8 µg/mL
same,MIC,E. faecium; [42],> 8 µg/mL
same,MIC,E. faecium; [43],> 8 µg/mL
same,MIC,E. faecium; [44],> 8 µg/mL
same,MIC,E. faecium; [45],> 8 µg/mL
same,MIC,E. faecium; [46],> 8 µg/mL
same,MIC,E. faecium; [47],> 8 µg/mL
same,MIC,E. faecium; [48],2 µg/mL
same,MIC,S. epidermidis; [49],0.25 µg/mL
same,MIC,S. epidermidis; [50],0.25 µg/mL
same,MIC,S. epidermidis; [51],0.25 µg/mL
same,MIC,S. epidermidis; [52],0.25 µg/mL
same,MIC,S. epidermidis; [53],0.25 µg/mL
same,MIC,S. epidermidis; [54],0.25 µg/mL
same,MIC,S. epidermidis; [55],0.25 µg/mL
same,CC50,HEL cells,> 100 µM
same,CC50,Calu-3 cells,> 100 µM
same,MIC,[5],128 µg/mL
same,CC50,VeroE6 cells,> 100 µM
same,IC50,[2],4.5 ± 1 µM
same,MIC,[6],512 µg/mL
same,MIC,[7],256 µg/mL
